# According to patent publication EP1058559B1, “COMBINATION OF A SELECTIVE NMDA NR2B ANTAGONIST AND A COX-2 INHIBITOR” (MERCK SHARP & DOHME LTD., priority 1998, dated 1999):
# Experiments:
# [1] = test system: mechanical allodynia induced by sciatic nerve ligation; assay: sciatic nerve ligation assay of neuropathic pain (mechanical allodynia, modified Randall-Selitto algesiometer); format: in vivo, male Sprague Dawley rats; settings: result in words; given 1 h before the test
# Description: (§1) The present Example examined whether NMDA NR2B receptor antagonists have an improved therapeutic window over unselective NNIDA/glycine antagonists and other ion channel blockers including lamotrigine and gabapentin, by comparing their anti-algesic effects with their liability to induce motor impairment in rats. Anti-algesic activity was assessed using an assay of neuropathic pain in rats (sciatic nerve ligation) and in a carrageenan-induced hyperalgesia assay. Motor impairment was measured using an accelerating rotarod.
# (§2) For sciatic nerve ligation, male Sprague Dawley rats (180-220g) were anaesthetised with isofluorane, the left sciatic nerve exposed and 4 chromic catgut (4.0) ligatures were tied loosely around the nerve (spaced 1-2 mm apart) immediately proximal to the point of trifurcation. In shamoperated animals, the same dissection was performed but without ligation. Responses to mechanical pressure were assessed 7 days after ligation using a modified Randall-Selitto algesiometer in which constant force of […] was applied to the hind paw and the latency to struggle was recorded as the reaction time. Mechanical allodynia was defined as the difference in reaction time for sham and ligature rats. Reaction times for drug treated rats were expressed as a percentage of this response. Compounds were administered 1 h before the test. In the carrageenan-induced hyperalgesia assay, male Sprague Dawley rats (100-120 g) received an intraplantar injection of carrageenan (4.5 mg) and mechanical thresholds were determined 3 h later using a modified Ugo Basile Algesiometer. Control rats received saline (0.15 ml i.pl.). Hyperalgesia was defined as the difference in vocalisation threshold for saline- and carrageenan-injected rats. Paw pressure scores for drug-treated rats were expressed as a percentage of this response. Compounds were administered 2 h after carrageenan. To determine the effects of the compounds on motor co-ordination, male Sprague Dawley rats (160-180 g) were first trained to remain for 120 s on the rotarod apparatus revolving at 12 r.p.m. on the morning before the test. Animals then received drug treatments and 1 h later were placed on an accelerating rotarod (increasing from 4 - 40 r.p.m. during a 5 min period) and the time the rats were able to remain on the rotarod recorded. Lamotrigine, gabapentin and (±)-CP-101,606 were suspended in 0.5% methocel and administered orally (1 ml/kg). Ifenprodil, L-701,324, L-687,414 and (±)-Ro25-6981 were dissolved or suspended in 0.5% methocel and administered intraperitoneally (1 ml/kg). MK-801 was dissolved in distilled water and given i.p. (1 ml/kg). Doses of compounds refer to the free base.
# motor co-ordination = assay: accelerating rotarod (motor co-ordination) with observed behaviour; format: in vivo, male Sprague Dawley rats; settings: for ID50 Motor Impairment Rat Rotarod: male, Sprague Dawley, in vivo, ip, 1 h
# Description: as §1, §2
# To determine the effects of morphine and (±)-Ro25-6981 on motor co-ordination, male Sprague Dawley rats (160-180 g) were first trained to remain for 120 s on the rotarod apparatus revolving at. 12 r.p.m. on the morning before the test. Animals then received drug treatments and 1 h later were placed on an accelerating rotarod (increasing from 4 - 40 r.p.m. during a 5 min period) and the time the rats were able to remain on the rotarod recorded.
# [2] = test system: mechanical hyperalgesia induced by carrageenan; assay: carrageenan-induced hyperalgesia assay (mechanical thresholds, modified Ugo Basile Algesiometer); format: in vivo, male Sprague Dawley rats; settings: for inhibition of hyperalgesia: alone, Figure 2
# Description: as §1
# For sciatic nerve ligation, male Sprague Dawley rats (180-220g) were anaesthetised with isofluorane, the left sciatic nerve exposed and 4 chromic catgut (4.0) ligatures were tied loosely around the nerve (spaced 1-2 mm apart) immediately proximal to the point of trifurcation. In shamoperated animals, the same dissection was performed but without ligation. Responses to mechanical pressure were assessed 7 days after ligation using a modified Randall-Selitto algesiometer in which constant force of […] was applied to the hind paw and the latency to struggle was recorded as the reaction time. […] Reaction times for drug treated rats were expressed as a percentage of this response. […] In the carrageenan-induced hyperalgesia assay, male Sprague Dawley rats (100-120 g) received an intraplantar injection of carrageenan (4.5 mg) and mechanical thresholds were determined 3 h later using a modified Ugo Basile Algesiometer. […] Paw pressure scores for drug-treated rats were expressed as a percentage of this response. […] Animals then received drug treatments and 1 h later were placed on an accelerating rotarod (increasing from 4 - 40 r.p.m. during a 5 min period) and the time the rats were able to remain on the rotarod recorded. […]
# Mate Sprague Dawley rats (100-120 g) received an intraplantar injection of carrageenan (4.5 mg) and mechanical thresholds were determined 3 h later using a modified Ugo Basile Algesiometer. […] Paw pressure scores for drug-treated rats were expressed as a percentage of this response. […]
# [3] = at doses showing no behavioural abnormality; cited from earlier work
compound,measurement,setting,value
C[C@@H](CN1CCC(Cc2ccccc2)CC1)[C@@H](O)c1ccc(O)cc1 (racemic) [(±)-Ro25-6981],reversal of mechanical allodynia induced by sciatic nerve ligation,[1],dose-dependently reversed mechanical allodynia
same,ID50 Motor Impairment Rat Rotarod,motor co-ordination,≥100 mg/kg
same,reversal of mechanical hyperalgesia induced by carrageenan,"[2]; 10 and 30 mg/kg i.p., Figure 1",dose-dependent reversal of mechanical hyperalgesia
C[C@]12N[C@H](Cc3ccccc31)c1ccccc12 [MK-801],reversal of mechanical allodynia induced by sciatic nerve ligation,[1],dose-dependently reversed mechanical allodynia
same,behavioural effects observed,motor co-ordination; 0.3 and 1 mg/kg doses (i.p.),"Body rolling, and head weaving"
"CS(=O)(=O)Nc1cc2c(cc1Sc1ccc(F)cc1F)C(=O)CC2 [L-745,337]",inhibition of hyperalgesia,[2]; 3 mg/kg p.o.,75%
same,inhibition of hyperalgesia,"[2]; 0.3-3 mg/kg p.o., result in words",dose-dependent inhibition of hyperalgesia
"O=c1[nH]c2cc(Cl)ccc2c(O)c1-c1cccc(Oc2ccccc2)c1 [L-701,324]",reversal of mechanical allodynia induced by sciatic nerve ligation,[1],dose-dependently reversed mechanical allodynia
same,behavioural effects observed,motor co-ordination; 10 and 30 mg/kg i.p.,ataxia
CC(C(O)c1ccc(O)cc1)N1CCC(Cc2ccccc2)CC1 (centres unmarked) [Ifenprodil],reversal of mechanical allodynia induced by sciatic nerve ligation,[1],reversed mchanical allodynia
same,ID50 Motor Impairment Rat Rotarod,motor co-ordination,≥50 mg/kg
"C[C@@H]1CN(O)C(=O)[C@@H]1N [L-687,414]",reversal of mechanical allodynia induced by sciatic nerve ligation,[1],dose-dependently reversed mechanical allodynia
NCC1(CC(=O)O)CCCCC1 [Gabapentin],reversal of mechanical allodynia induced by sciatic nerve ligation,[1],reversed mchanical allodynia
same,motor impairments observed,motor co-ordination; doses of 30-300 mg/kg,motor impairments (ataxia)
"(±)-CP-101,606",reversal of mechanical allodynia induced by sciatic nerve ligation,[1],dose-dependently reversed mechanical allodynia
same,analgesic activity,[3],Potent analgesic activity
Nc1nnc(-c2cccc(Cl)c2Cl)c(N)n1 [Lamotrigine],reversal of mechanical allodynia induced by sciatic nerve ligation,[1],reversed mchanical allodynia
